For data set [1], the system named is rabbit skeletal myosin. As to the kind of experiment: Myosin inhibition assay (rbskMF pCa 6 IC50). In kind it is biochemical. As to conditions: cardiac vs rabbit skeletal myofibrils. From the text:
Myosin inhibition assay (rbskMF pCa 6 IC50 (μM))
Inhibition of the enzymatic activity of rabbit skeletal myosin associated with the release of ADP (adenosine diphosphate) at the calcium concentrate that achieves a 50% activation of the rabbit skeletal myofibril system. The procedure was the same as that of bovin cardiac myosin inhibition assay (bcMF pCa 6 IC50 (μM)) by replacing bovine cardiac myofibril with rabbit skeletal myofibril.

A short description of data set [2]: Reactive metabolite identification (glutathione adducts). The data set is classed as in vitro ADME, human. As to the method: Reactive Metabolite Identification
In vitro determination of reactive metabolite formation for small molecules by detection of glutathione adducts formed in vitro in incubations with human liver microsomes fortified with NADPH and glutathione.
Methods: The metabolism of small molecules (30 μM) for glutathione adduct formation was assessed in incubations (200 μL volume, […], 60 min incubation time) with liver microsomes from human (1 mg/mL protein) conducted in potassium phosphate buffer (0.1 M, pH 7.4) for 1 h at 37° C. in a 96-well plate (2 mL well volume) and were performed in the absence of NADPH (used as a negative control) and in the presence of NADPH (1 mM) and glutathione (GSH, 10 mM). Incubations with liver microsomes were performed in a shaking water bath incubator with slow horizontal shaking (30 rpm). To obtain 30 μM incubation concentration of a compound, a 3 mM substrate stock solution in DMSO was used. Final incubation mixtures contained 148 μL of potassium phosphate buffer, 10 μL of liver microsome solution (20 mg protein/mL), 2 μL of the 3 mM substrate solution and where incubations were initiated by the addition of 40 μL of NADPH solution (5 mM dissolved in potassium phosphate buffer). Non-NADPH containing incubations were supplemented with 40 μL of potassium phosphate buffer. Post-incubation, reactions were terminated by adding an equal volume of acetonitrile containing 20 nM carbamazepine internal standard and 3% formic acid. Quenched samples then were centrifuged (4,600 rpm, 4° C., 10-min) after which the supernatants were transferred to a 96-well LC-MS sample analysis plate and diluted with one volume equivalent of HPLC-grade water, and then heat sealed with aluminum foil prior to analysis by liquid chromatography/mass spectrometry (LC-MS/MS).
Analyte identification: The LC-MS/MS detection (with in-line UV detection at 280 nm) of test compounds and potential GSH-adducts was focused on extracting selected ion chromatographic profiles using the protonated molecular ion MH^+ m/z for parent to 4 decimal places, and corresponding protonated molecular ions of predicted GSH-adduct metabolites (m/z MH^+ parent+305.0681 amu) using Xcalibur software (version 2.1.0, Thermo Fisher Scientific, Waltham, MA). Relative GSH-adduct abundance in vitro in liver microsome extracts was assessed using the LC/UV absorbance at 280 nm peak area ratio obtained by using Xcalibur software (version 2.1.0) between the detected GSH-adducts from NADPH- and GSH-fortified incubation extracts and the corresponding LC/UV peak area of the parent compound from minus NADPH containing incubation extracts. The extent of GSH-adduct formation was determined by LC-MS/MS analysis with in-line LC-UV detection at 280 nm by dividing the glutathione-adduct LC/UV peak area by the LC/UV peak area of the corresponding parent HCM-1 NG analog determined from analysis of control (-NAPDH, -GSH) incubations extracts.
Materials: Pooled male human (HLM, 50 donors) liver microsomes were obtained from Bioreclamation IVT (Baltimore, MD). Glutathione (GSH) and NADPH were purchased from Sigma Chemical Co. (St. Louis, MO). All solvents used for liquid chromatography-tandem mass spectrometry (LC-MS/MS) analyses were of chromatographic grade.
LC-MS Conditions: Extracts from incubations with liver microsomes and hepatocytes were characterized by LC-MS and LC-MS/MS on a Thermo Electron LTQ Orbitrap XL mass spectrometer coupled with a Dionex UltiMate 3000 UHPLC containing in-line diode array detection and an OAS-3300TXRS Autosampler (40 μL injection volume). Electrospray ionization (ESI) was employed in the positive ion mode with the needle potential held at 5.01 kV, a sheath flow rate of 35.02, aux flow rate of 9.99, a current of 2.6 uA, a capillary temperature of 325° C., and a capillary voltage of 15.99. Vacuum conditions used were an ion gauge pressure used was 2.33×10^−5 Torr and a convection gauge pressure of 0.90 Torr. […]

The target of data set [3] is T1, bovine cardiac myosin (Bos taurus (Bovine), UniProt Q9BE39). As to the kind of experiment: Myosin inhibition assay (bcMF pCa 6 IC50). In kind it is biochemical. As to conditions: bovine cardiac myofibrils, calcium giving 50% activation. As to the method: Myosin inhibition assay (bcMF pCa 6IC50 (μM))
Small molecule agents were assessed for their ability to inhibit the enzymatic activity of bovine cardiac myosin using a biochemical assay that couples the release of ADP (adenosine diphosphate) from cardiac myosin to an enzymatic coupling system consisting of pyruvate kinase and lactate dehydrogenase (PK/LDH) and monitoring the absorbance decrease of NADH (at 340 nm) as a function of time. PK converts ADP to ATP (adenosine triphosphate) by converting PEP (phosphoenolpyruvate) to pyruvate. Pyruvate is then converted to lactate by LDH by converting NADH (nicotinamide adenine dinucleotide) to NAD (oxidized nicotinamide adenine dinucleotide). The source of cardiac myosin was from bovine heart in the form of skinned myofibrils. Prior to testing small molecule agents, the bovine myofibrils were assessed for their calcium responsiveness and the calcium concentration that achieves a 50% activation of the myofibril system was chosen as the final condition for assessing the inhibitory activity of the small molecule agents. All enzymatic activity was measured in a buffered solution containing 12 mM PIPES (piperazine-N,N′-bis(2-ethanesulfonic acid), 2 mM magnesium chloride at pH 6.8 (PM12 buffer). Final assay conditions were 1 mg/mL of bovine cardiac myofibrils, 0.4 mM PK/LDH, 50 uM ATP, 0.1 mg/mL BSA (bovine serum albumin), 10 ppm antifoam, 2 mM BME, 0.5 mM NADH, and 1.5 mM PEP at the desired free calcium concentration required to achieve 50% activation of the myofibrils.
A dilution series of compound was created in DMSO such that the final desired concentration of compound would be achieved in a volume of 30 μL with a fixed DMSO concentration of 3.3% (v/v). Typically 1 μL of the dilution series were added to 384 well plate to achieve a 10 point dose response. Following the addition of 14 μL of a solution containing bovine cardiac myofibrils, PK/LDH and a solution of calcium (that achieved 50% activation), the enzymatic reaction was started with the addition of 15 μL of a solution containing ATP, PEP and NADH. The reaction progress was followed in a PerkinElmer Envision plate reader at ambient temperature using clear bottom plates. The plate reader was configured to read absorbance at 340 nm in kinetics mode for 15 minutes. Data were recorded as the slope of the absorbance response to time. The slopes of the absorbance response as a function of time were normalized to slopes on the plate containing DMSO. This normalized rate was then plotted as a function of small molecule concentration and the data was fitted to a four-parameter fit using EXCEL XLfit. The IC50 is the concentration at which fifty percent of the total response is inhibited.

Data set [4] concerns the target T1, bovine cardiac myosin. The data set can be described thus: Myosin inhibition assay (bcMF serum pCa 6 IC50), 10% human serum. Conditions: in the presence of 10% human serum. The data set is classed as biochemical. From the text:
Myosin Inhibition Assay (bcMF Serum pCa 6 IC50 (μM))
Inhibition of the enzymatic activity of bovine cardiac myosin associated with the release of ADP (adenosine diphosphate) at the calcium concentrate that achieves a 50% activation of the bovine cardiac myofibril system in the presence of 10% human serum. The procedure was the same as that bovin cardiac myosin inhibition assay (bcMF pCa 6 IC50 (μM)) but with the addition of 10% human serum.

Data set [5] is described as follows: physchem. As to conditions: pH 7.4, aqueous buffer, kinetic from dmso stock. As to the method: After shaking at room temperature for 1.5 h, the mixture was filtered under vacuum through a 96-well filter plate, which was pre-washed with 100 μL of 70% ethanol per well. Subsequently, 70 μL of the filtrate was added into a well in a 96-well reading plate, which was pre-loaded with 70 μL of DMSO per well. The concentration of the sample in a well was determined on the basis of the intergration on LC with UV detection as compared to the standard curve of each compound established in DMSO.

T1 sequence (Q9BE39 whole entry): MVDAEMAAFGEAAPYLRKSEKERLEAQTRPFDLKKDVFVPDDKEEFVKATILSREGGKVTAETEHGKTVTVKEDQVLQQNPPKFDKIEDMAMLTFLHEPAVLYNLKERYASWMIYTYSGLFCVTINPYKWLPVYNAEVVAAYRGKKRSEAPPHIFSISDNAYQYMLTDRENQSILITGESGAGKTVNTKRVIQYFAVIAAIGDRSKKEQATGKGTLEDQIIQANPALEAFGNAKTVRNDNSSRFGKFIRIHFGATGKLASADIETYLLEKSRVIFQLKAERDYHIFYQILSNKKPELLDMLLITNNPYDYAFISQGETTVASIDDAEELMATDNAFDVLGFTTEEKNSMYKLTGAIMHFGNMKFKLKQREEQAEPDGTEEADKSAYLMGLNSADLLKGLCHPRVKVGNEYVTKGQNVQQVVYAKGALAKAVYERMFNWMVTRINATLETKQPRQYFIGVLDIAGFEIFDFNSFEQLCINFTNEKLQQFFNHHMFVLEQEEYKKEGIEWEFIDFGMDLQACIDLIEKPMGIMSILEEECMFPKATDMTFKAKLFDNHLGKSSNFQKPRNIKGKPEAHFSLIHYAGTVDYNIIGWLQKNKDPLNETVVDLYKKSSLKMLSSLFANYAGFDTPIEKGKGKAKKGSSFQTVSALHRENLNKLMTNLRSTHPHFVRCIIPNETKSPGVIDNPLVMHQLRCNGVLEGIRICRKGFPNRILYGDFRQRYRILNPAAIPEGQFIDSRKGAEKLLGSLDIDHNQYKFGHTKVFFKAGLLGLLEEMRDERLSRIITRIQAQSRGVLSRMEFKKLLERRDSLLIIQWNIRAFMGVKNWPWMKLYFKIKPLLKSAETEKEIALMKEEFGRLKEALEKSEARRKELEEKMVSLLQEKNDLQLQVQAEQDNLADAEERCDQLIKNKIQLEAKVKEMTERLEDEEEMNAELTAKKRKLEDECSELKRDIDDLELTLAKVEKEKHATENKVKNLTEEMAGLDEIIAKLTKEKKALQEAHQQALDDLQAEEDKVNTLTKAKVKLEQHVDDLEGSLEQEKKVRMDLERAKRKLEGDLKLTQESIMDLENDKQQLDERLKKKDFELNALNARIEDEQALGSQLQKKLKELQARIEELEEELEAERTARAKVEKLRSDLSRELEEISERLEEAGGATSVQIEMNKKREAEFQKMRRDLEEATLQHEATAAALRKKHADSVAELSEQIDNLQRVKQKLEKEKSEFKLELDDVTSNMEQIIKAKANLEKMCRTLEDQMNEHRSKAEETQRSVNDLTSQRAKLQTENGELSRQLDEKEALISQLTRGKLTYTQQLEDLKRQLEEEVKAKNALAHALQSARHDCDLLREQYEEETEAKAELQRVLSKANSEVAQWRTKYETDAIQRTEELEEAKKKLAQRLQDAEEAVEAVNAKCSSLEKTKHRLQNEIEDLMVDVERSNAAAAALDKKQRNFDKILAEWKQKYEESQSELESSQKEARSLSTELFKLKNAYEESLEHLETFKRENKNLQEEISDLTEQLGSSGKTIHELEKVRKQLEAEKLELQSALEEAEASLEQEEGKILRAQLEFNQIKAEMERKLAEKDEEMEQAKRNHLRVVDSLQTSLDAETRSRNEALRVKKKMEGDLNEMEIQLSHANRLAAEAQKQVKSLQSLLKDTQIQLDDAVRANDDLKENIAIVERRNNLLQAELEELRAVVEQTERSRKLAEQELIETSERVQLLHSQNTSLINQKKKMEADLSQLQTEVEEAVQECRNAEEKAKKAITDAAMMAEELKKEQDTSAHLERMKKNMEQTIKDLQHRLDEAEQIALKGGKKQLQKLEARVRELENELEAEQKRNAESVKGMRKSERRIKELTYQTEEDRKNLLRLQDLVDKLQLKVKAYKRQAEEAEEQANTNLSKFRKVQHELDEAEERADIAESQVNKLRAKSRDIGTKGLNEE
T1 sequence (P85100 whole entry partner): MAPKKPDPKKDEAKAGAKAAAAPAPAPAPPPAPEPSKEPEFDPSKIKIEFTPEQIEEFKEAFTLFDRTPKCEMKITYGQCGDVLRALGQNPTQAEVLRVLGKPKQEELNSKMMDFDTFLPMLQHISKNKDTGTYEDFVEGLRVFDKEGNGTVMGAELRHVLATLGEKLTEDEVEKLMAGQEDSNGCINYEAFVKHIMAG
T1 sequence (Q3SZE5 whole entry partner): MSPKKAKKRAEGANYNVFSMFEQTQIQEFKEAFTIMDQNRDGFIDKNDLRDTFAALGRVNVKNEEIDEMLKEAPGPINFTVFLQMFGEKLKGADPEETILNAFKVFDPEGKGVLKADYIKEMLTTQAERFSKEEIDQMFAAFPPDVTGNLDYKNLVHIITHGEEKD

As to `O=c1[nH]c2c(c(=O)n1C1CCOCC1)C[C@H](F)[C@H](c1cccc(F)c1)N2` [Compound 1, (6S,7S)-6-fluoro-7-(3-fluorophenyl)-3-(tetrahydro-2H-pyran-4-yl)-5,6,7,8-tetrahydropyrido[2,3-d]pyrimidine-2, 4(1H, 3H)-dione], the “Cardiac selectivity ratio vs rbskMF pCa 6 IC50” value in data set [1] was determined as 7.38. The “% GSH-adduct (+NADPH, +GSH) relative to parent (−NADPH, −GSH)” value in data set [2] (human liver microsomes, 30 μM, 60 min) is on record as “Not Detected”. Moreover, the “Glutathione Adduct Detection in Human Liver Microsome Incubations (single measurement)” value in data set [2] was “Not Detected”. In addition, the “Glutathione Adduct Detection in Human Liver Microsome Incubations, Average (triple measurements)” value in data set [2] was “Not Detected”. In addition, the values for the IC50 in data set [3] (read-out: bcMF pCa 6 IC50), in data set [3] (read-out: bcMF pCa_6 IC50 MEAN) and in data set [4] were 3.03 µM, 3.03 µM and 3.7 µM, respectively.
Take `COC(=O)[C@H]1[C@H]2C[C@@H]3c4[nH]c5cc(OC)ccc5c4CCN3C[C@H]2C[C@@H](OC(=O)c2cc(OC)c(OC)c(OC)c2)[C@@H]1OC` [Reserpine]: the kinetic solubility at 1.5 h in data set [5] was less than 15 µM.
On to `O=c1[nH]c2c(c(=O)n1C1CCOCC1)C[C@@H](F)[C@H](c1cccc(F)c1)N2` [Compound 2, (6R,7S)-6-fluoro-7-(3-fluorophenyl)-3-(tetrahydro-2H-pyran-4-yl)-5,6,7,8-tetrahydropyrido[2,3-d]pyrimidine-2,4(1H, 3H)-dione], for which the “Cardiac selectivity ratio vs rbskMF pCa 6 IC50” value in data set [1] is 10.71. Further, in data set [2], the “Glutathione Adduct Detection in Human Liver Microsome Incubations (single measurement)” value is “Not Detected”. In addition, in data set [2], the “Glutathione Adduct Detection in Human Liver Microsome Incubations, Average (triple measurements)” value is listed as “Not Detected”. Besides, the figures for the IC50 in data set [3] (read-out: bcMF pCa 6 IC50), in data set [3] (read-out: bcMF pCa_6 IC50 MEAN) and in data set [4] were 2.13 µM, 2.13 µM and 3.11 µM, respectively.

The values above are taken from US20250282779A1, “SUBSTITUTED 5,6,7,8-TETRAHYDROPYRIDO[2,3-D]PYRIMIDINE-2,4-DIONES FOR TREATING CARDIAC DISEASES” (MYOKARDIA, INC., priority 2018, published 2025).
